In PMC11233931, “Remodeling tumor‐associated macrophage for anti‐cancer effects by rational design of irreversible inhibition of mitogen‐activated protein kinase‐activated protein kinase 2” (MedComm, 2024) one finds inhibition data, which are given here for one molecule.

Common to all, as to experiment: Eurofins kinase selectivity profile against 380 other human recombinant kinases (Table S2)
Holding throughout (type): biochemical

Assay [1] deals with T1, 380 human recombinant protein kinases (Homo sapiens, UniProt O43353).
T1 construct: purchased Eurofins (Celle Lévescault)
T1 sequence (O43353 whole entry): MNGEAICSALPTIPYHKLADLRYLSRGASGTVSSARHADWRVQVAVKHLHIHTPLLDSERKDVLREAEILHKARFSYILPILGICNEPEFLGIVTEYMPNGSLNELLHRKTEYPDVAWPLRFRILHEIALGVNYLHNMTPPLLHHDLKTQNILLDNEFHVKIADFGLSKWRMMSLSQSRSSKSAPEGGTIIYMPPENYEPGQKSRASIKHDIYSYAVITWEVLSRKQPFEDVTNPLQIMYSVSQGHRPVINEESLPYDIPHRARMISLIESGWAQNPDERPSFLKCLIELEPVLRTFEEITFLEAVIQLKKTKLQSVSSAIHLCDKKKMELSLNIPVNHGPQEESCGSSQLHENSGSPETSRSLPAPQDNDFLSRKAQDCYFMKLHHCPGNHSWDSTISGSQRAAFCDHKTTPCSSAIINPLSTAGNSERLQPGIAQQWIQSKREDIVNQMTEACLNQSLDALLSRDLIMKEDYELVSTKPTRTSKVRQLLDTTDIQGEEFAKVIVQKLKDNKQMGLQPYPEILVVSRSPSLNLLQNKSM
Conditions: RIPK2(h), read-out: Inhibition rate. In a few lines:
(§1)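 Off-target profiling: one compound assayed by a commercial provider over 380 recombinant human protein kinases at various concentrations.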

The target of assay [2] is T2, 380 human recombinant protein kinases (Homo sapiens, UniProt P36888).
T2 construct: purchased Eurofins (Celle Lévescault)
T2 sequence (P36888 27-993): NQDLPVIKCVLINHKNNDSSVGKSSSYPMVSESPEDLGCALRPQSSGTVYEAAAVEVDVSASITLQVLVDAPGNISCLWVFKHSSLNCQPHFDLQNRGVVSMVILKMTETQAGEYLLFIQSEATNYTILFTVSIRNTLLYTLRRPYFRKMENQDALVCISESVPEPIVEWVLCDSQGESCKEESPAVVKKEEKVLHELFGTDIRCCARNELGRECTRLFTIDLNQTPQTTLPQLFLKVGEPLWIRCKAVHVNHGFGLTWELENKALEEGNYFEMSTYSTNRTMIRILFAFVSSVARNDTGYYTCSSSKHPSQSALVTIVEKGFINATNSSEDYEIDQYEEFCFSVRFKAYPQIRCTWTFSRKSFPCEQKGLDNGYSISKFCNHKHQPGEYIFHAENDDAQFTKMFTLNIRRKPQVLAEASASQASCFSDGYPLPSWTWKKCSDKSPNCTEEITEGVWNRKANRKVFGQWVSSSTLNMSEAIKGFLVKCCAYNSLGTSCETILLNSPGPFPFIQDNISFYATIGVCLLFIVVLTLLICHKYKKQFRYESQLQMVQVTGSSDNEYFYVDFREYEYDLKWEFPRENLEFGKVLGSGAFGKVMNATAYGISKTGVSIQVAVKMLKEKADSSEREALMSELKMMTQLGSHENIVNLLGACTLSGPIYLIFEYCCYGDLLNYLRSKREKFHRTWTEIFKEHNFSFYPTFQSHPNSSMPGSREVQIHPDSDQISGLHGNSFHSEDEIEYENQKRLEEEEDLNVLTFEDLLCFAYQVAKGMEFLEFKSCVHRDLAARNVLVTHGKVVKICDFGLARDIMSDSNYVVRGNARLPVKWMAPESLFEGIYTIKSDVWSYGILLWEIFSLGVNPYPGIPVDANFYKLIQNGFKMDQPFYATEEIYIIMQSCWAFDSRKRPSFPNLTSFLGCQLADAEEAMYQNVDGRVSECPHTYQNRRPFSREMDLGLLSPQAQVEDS
Conditions: Flt3(h), read-out: Inhibition rate. In a few lines: as §1

Assay [3] has as its target T3, 380 human recombinant protein kinases (Homo sapiens, UniProt P51955).
T3 construct: purchased Eurofins (Celle Lévescault)
T3 sequence (P51955 1-445): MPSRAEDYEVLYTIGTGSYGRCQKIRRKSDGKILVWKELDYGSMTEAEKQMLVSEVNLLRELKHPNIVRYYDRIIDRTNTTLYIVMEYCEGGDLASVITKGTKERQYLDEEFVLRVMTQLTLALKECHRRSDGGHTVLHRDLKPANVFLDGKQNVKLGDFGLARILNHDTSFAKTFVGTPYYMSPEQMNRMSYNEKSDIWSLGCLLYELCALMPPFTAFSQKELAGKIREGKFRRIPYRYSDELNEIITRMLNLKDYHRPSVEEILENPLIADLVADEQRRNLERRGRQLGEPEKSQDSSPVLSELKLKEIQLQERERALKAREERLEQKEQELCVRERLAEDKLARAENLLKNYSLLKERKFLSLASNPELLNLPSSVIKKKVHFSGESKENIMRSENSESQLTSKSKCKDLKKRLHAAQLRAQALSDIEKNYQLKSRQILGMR
The conditions noted are these: NEK2(h), read-out: Inhibition rate. In a few lines: as §1

For assay [4], the target named is T4, 380 human recombinant protein kinases (Homo sapiens, UniProt P53667).
T4 construct: purchased Eurofins (Celle Lévescault)
T4 sequence (P53667 whole entry): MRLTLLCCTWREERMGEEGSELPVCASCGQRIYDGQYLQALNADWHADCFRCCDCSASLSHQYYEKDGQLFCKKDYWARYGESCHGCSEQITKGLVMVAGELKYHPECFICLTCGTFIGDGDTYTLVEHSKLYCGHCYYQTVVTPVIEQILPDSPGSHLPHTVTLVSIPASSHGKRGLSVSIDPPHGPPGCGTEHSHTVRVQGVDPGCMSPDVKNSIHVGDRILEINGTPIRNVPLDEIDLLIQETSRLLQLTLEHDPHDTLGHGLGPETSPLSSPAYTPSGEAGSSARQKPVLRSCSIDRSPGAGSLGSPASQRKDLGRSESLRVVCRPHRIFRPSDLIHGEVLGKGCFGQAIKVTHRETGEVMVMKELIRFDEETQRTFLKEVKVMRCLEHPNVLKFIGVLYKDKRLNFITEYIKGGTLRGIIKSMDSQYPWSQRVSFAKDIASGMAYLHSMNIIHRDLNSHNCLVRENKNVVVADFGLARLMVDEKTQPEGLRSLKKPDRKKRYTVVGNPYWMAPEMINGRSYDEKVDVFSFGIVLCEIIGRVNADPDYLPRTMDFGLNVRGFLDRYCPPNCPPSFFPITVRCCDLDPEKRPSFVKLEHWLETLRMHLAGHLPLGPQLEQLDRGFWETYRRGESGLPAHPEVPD
Conditions: LIMK1(h), read-out: Inhibition rate. The essentials: as §1

Assay [5] deals with T5, 380 human recombinant protein kinases (Homo sapiens, UniProt Q9H2K8).
T5 construct: purchased Eurofins (Celle Lévescault)
T5 sequence (Q9H2K8 1-898): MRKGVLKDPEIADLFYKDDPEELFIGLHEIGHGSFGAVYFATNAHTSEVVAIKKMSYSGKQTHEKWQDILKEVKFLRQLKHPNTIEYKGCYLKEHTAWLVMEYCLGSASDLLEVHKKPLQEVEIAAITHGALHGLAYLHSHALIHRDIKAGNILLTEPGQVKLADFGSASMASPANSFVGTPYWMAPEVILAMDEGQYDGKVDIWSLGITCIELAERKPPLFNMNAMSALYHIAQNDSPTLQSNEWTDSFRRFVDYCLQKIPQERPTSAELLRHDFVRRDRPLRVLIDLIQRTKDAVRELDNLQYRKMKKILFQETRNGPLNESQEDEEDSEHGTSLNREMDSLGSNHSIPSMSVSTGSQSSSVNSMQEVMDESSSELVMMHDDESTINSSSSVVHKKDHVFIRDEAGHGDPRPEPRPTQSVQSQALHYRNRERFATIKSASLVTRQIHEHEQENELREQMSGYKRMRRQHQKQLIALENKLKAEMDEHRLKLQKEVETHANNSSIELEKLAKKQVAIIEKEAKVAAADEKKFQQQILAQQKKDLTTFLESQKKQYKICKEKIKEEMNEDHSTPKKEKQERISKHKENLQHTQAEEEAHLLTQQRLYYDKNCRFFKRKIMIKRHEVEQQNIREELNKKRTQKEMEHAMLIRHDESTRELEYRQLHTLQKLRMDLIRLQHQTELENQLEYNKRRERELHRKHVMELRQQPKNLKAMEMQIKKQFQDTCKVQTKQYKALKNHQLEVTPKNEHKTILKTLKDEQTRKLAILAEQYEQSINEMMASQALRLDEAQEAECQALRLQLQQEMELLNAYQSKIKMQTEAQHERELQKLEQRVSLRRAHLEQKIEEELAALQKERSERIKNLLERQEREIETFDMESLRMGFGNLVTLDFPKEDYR
The conditions noted are these: TAO3(h), read-out: Inhibition rate (%). The essentials:
as §1

The inhibition is the drop in the measured response relative to a control, in per cent. Consider `C=CC(=O)Nc1cc(-c2cc(-c3cc4c([nH]3)CCNC4=O)ccn2)ccc1OC(F)(F)F` [compound 11], for which the inhibition at 0.01 µM in assay [1] (10 nM) is 11%; in assay [2] (10 nM), -12%; in assay [3] (10 nM), -3%; in assay [4] (10 nM), -5%; in assay [5] (10 nM) it was -4%. In addition, the inhibition at 0.1 µM in assay [1] (100 nM) is 46%; in assay [2] (100 nM) it was -5%; in assay [3] (100 nM), 0%; in assay [4] (100 nM) it was -2%; in assay [5] (100 nM), 0%. Further, the inhibition at 1 µM in assay [1] (1000 nM) was 88%; in assay [2] (1000 nM) it was 24%; in assay [3] (1000 nM), 11%; in assay [4] (1000 nM) it was -2%; in assay [5] (1000 nM), 7%.
